The values that follow are results of earlier work, collected in patent US10874753B2, “Radiopharmaceutical conjugate of a metabolite and an EPR agent, for targeting tumour cells” (The South African Nuclear Energy Corporation Limited, priority 2014, dated 2020).

The conditions of data set [1]: binding of Ga by N4O2 chelator.
The next data set addresses folate receptors (FR). The note with it: binding to surface folate receptors (FR).

In the case of `O=C(O)c1cccc(CNCCNCc2cccc(C(=O)O)n2)n1` [Cyclam H2dedpa, (1,2-bis{[[6-(carboxy)pyridine-2-yl]methyl]-amino}-ethane)], the stability constant in data set [1] is given as 28.1.
In the case of `Nc1nc(=O)c2nc(CNc3ccc(C(=O)N[C@@H](CCC(=O)O)C(=O)O)cc3)cnc2[nH]1` [Folate], the Kd on folate receptors (FR) was roughly 1 nM.
